Patent US20250146011A1, “HERBICIDE-RESISTANT CAMELINA SATIVA PLANTS, AND VARIANT CAMELINA ACETOHYDROXYACID SYNTHASE POLYPEPTIDES” (Smart Earth Camelina Corp., priority 2019, published 2025)
Values joined by “and” are separate entries in the source; they are usually repeats but may differ in a detail not shown here. Identical values can stand only once. Marks after values point to notes of the source that are not given here.

Key:
12CS0365 [1] = assay: Phenotype scoring (R/S) after thifensulfuron-methyl 2.5 g ai/ha; type: in vivo, Camelina sativa; conditions: 7 d after application
Excerpt: (§1) At a thifensulfuron-methyl application rate of 2.5 g ai/ha, plants from parental, F2, BC1F1, and BC4F2 populations could easily be scored into one of two discrete phenotypic classes (R, resistant or S, susceptible) 7 d after herbicide application.

SRS 934 [2] = assay: as above; type: in vivo, Camelina sativa; conditions: 7 d after application
Excerpt: as §1

12CS0366 [3] = assay: as above; type: in vivo, Camelina sativa; conditions: 7 d after application
Excerpt: as §1

10CS0048 (MIDAS) = assay: as above; type: in vivo, Camelina sativa; conditions: 7 d after application
Excerpt: as §1

13CS0786 [4] = assay: as above; type: in vivo, Camelina sativa; conditions: 7 d after application
Excerpt: as §1

13CS0786 [5] = assay: Greenhouse dose-response to thifensulfuron-methyl (height, biomass); type: in vivo, Camelina sativa; conditions: 21 days after application, rates 0 to 525 g ai/ha, n = 16
SRS 934 [6] = assay: as above; type: in vivo, Camelina sativa; conditions: 21 days after application, rates 0 to 525 g ai/ha, n = 16
[7] = test system: segregating camelina populations; assay: Segregation of resistance to thifensulfuron-methyl in F2, BC1F1 and BC4F2 populations; type: in vivo, Camelina sativa; conditions: 2.5 g ai/ha, 7 d
Excerpt: From each cross combination, randomly selected F1 plants were selfed for the development of F2 populations segregating for 1 resistance gene.
Further, mutant lines 12CS0365 and 12CS0366 were crossed with each other and a randomly selected F1 plant selfed for the development of an F2 population segregating for 2 independent resistance genes. F4 progeny of F2 plants homozygous for both resistance genes (13CS0786) was backcrossed to 10CS0048 to form a backcross (BC1F1) population. Further backcrossing to the recurrent parent 10CS0048 was conducted until stabilization of the trait in the BC4F3 generation (homozygous for 2 resistance genes).
as §1
Assuming inheritance in a Mendelian manner, the expected genotypic segregation ratio in an F2 population segregating for a single resistance gene would be 1(RR): 2(Rr): 1(rr), or 3(RR, Rr): 1(rr).
If two unlinked genes for resistance are segregating in an F2 population, the expected genotypic segregation ratio would be 9 (R1-R2-): 2 (R1r1r2r2): 2 (r1r1R2r2): 1 (R1R1r2r2): 1 (r1r1R2R2): 1 (r1r1r2r2), or 15 (R1-R2-, R1r1r2r2, r1r1R2r2, R1R1r2r2, r1r1R2R2): 1 (r1r1r2r2). The expected genotypes in the BC1F1 population would be R1r1R2r2, R1r1r2r2, r1r1R2r2, and r1r1r2r2, each produced in equal frequency, resulting in a segregation ratio of 1 (R1r1R2r2): 2 (R1r1r2r2, r1r1R2r2): 1 (r1r1r2r2), or 3 (R1r1R2r2, R1r1r2r2, r1r1R2r2): 1 (r1r1r2r2). The expected segregation ratio in the BC4F2 generation would be the same as that observed in the F2 population.
The F2 population resulting from the reciprocal cross of 10CS0048 with 12CS0365 and 12CS0366, respectively, the F2 population resulting from the cross 12CS0365/12CS0366 and the BC1F1 and BC4F2 populations resulting from the cross of F4 plants homozygous for 2 resistance genes (13CS0786) with recurrent parent 10CS0048, gave good fit to the expected segregation ratios (Table 7).

12CS0365 [8] = assay: Greenhouse dose-response to thifensulfuron-methyl (height, biomass); type: in vivo, Camelina sativa; conditions: 21 days after application, rates 0 to 525 g ai/ha, n = 16
12CS0366 [9] = assay: as above; type: in vivo, Camelina sativa; conditions: 21 days after application, rates 0 to 525 g ai/ha, n = 16
AHAS of SRS 934 = assay: AHAS product feedback inhibition assay; type: biochemical, Camelina sativa; conditions: for Absorbance reading (530 nm), raw data: single reps
Method: (§2) Briefly, for each of the three comparators, leaf and stem (petiole) material was bulk-harvested at the 3-4 leaf stage from at least 30 plantlets, snap-frozen in liquid nitrogen, and stored at −80° C. The AHAS in vitro assay was conducted according to the method of Singh et al (1988), with modifications by Yu (2010) and Rustgi (2014). For each comparator, 4 grams of frozen material were ground to a fine powder with a mortar and pestle in liquid nitrogen and homogenized in 1 volume of cold extraction buffer containing 100 mM potassium phosphate buffer (pH7.5), 10 mM sodium pyruvate, 5 mM MgCl2, 100 μM flavin adenine dinucleotide (FAD), and 10% glycerol. Four 2-mL microcentrifuge tubes were used for each comparator. The homogenate was centrifuged at 13,000 rpm for 10 min at 4° C., supernatant collected and re-centrifuged for an additional 10 minutes under the same conditions. For each tube, 1 mL of supernatant was pipetted into a new 2-mL microcentrifuge tube, and protein was precipitated by the addition of 1 mL of saturated ammonium sulfate. The solution was mixed well by vortex and allowed to stand on ice for 20 minutes, then centrifuged at 13,000 rpm at 4° C. The protein pellet was resuspended in 300 μL of reaction buffer containing 50 mM potassium phosphate buffer (pH7.5), 100 mM sodium pyruvate, 10 mM MgCl2, 1 mM EDTA, 10 μM FAD, 100 mM NaCl, and 1 mM thiamine pyrophosphate. Tubes of each comparator were combined, mixed well, kept on ice and immediately used in the AHAS activity and feedback inhibition assays.
(§3) Total protein concentration of the crude extract was determined by the Bradford method (Bradford, 1976). All assays were conducted using 300 μg of total protein each.
(§4) […] (2010). The reaction mixture contained 50 μL enzyme extract and 50 μL 100 mM sodium pyruvate and inhibitor amino acid. The reaction was incubated at 37° C. for 60 minutes, then stopped and acetolactate converted to acetoin with the addition of 20 μL of 6 N H2SO4 and incubated at 60° C. for 15 minutes. A separate background “blank” was included for each sample group by adding 20 μL of 6 N H2SO4 prior to the addition of the enzyme extracts. Then, 95 μL of 0.55% w/v creatine solution and 95 μL of α-naphthol solution (5.5% w/v in 5 N NaOH) were added and the mixture incubated at 60° C. for a further 15 minutes. After cooling to room temperature for 15 minutes, enzyme activity was determined colorimetrically by reading the absorbance at 530 nm. Three independent experiments were conducted. Experiment 1 and 2 each contained 2 technical replicates, while experiment 3 included 3 technical replicates.

AHAS of MIDAS = assay: AHAS product feedback inhibition assay; type: biochemical, Camelina sativa; conditions: for Absorbance reading (530 nm), raw data: single reps
Method: as §2, §3, §4

AHAS of 14CS0851-01-14 = assay: AHAS product feedback inhibition assay; type: biochemical, Camelina sativa; conditions: for sensitivity of AHAS to feedback inhibition, comparison of enzyme extracts: 14CS0851-01-14 vs SRS 934 and MIDAS, 1 mM, 10 mM; for Absorbance reading (530 nm), raw data: single reps
Method: as §2, §3, §4

[10] = F2 of 12CS0365 × 10CS0048 (reciprocal)
[11] = F2 of 12CS0366 × 10CS0048 (reciprocal)
[12] = Experiment 2, 10 mM amino acid, listed as Valine
[13] = Experiment 2, 100 mM amino acid
[14] = Experiment 1, 30 (mM) amino acid
[15] = Experiment 2, 30 (mM) amino acid
[16] = Experiment 3, 30 (mM) amino acid

COC(=O)c1sccc1S(=O)(=O)NC(=O)Nc1nc(C)nc(OC)n1 [thifensulfuron-methyl]
phenotype after herbicide application (12CS0365 [1]): resistant phenotype
phenotype after herbicide application (SRS 934 [2]): either killed or greatly damaged
phenotype after herbicide application (12CS0366 [3]): resistant phenotype
phenotype after herbicide application (10CS0048 (MIDAS)): either killed or greatly damaged
phenotype after herbicide application (13CS0786 [4]): resistant phenotype
ED50 biomass (13CS0786 [5]): 89.61 g ai/ha
ED50 height (13CS0786 [5]): 26.36 g ai/ha
ED50 biomass (SRS 934 [6]): 0.09 g ai/ha
ED50 height (SRS 934 [6]): 0.14 g ai/ha
Resistant (R), number of plants ([7]; BC1F1 of 10CS0048 × 13CS0786): 27 (27)^
Susceptible (S), number of plants ([7]; BC1F1 of 10CS0048 × 13CS0786): 9 (9)
Resistant (R), number of plants ([7]; BC4F2 of 10CS0048 × 13CS0786): 147 (147.2)
Susceptible (S), number of plants ([7]; BC4F2 of 10CS0048 × 13CS0786): 10 (9.8)
Resistant (R), number of plants [7, 10]: 555 (568)^‡
Susceptible (S), number of plants [7, 10]: 202 (189)
Resistant (R), number of plants ([7]; F2 of 12CS0365 × 12CS0366): 307 (306.6)
Susceptible (S), number of plants ([7]; F2 of 12CS0365 × 12CS0366): 20 (20.4)
Resistant (R), number of plants [7, 11]: 549 (540)^
Susceptible (S), number of plants [7, 11]: 171 (180)
ED50 biomass (12CS0365 [8]): 0.69 g ai/ha
ED50 height (12CS0365 [8]): 1.81 g ai/ha
ED50 biomass (12CS0366 [9]): 8.67 g ai/ha
ED50 height (12CS0366 [9]): 5.25 g ai/ha

CC(C)[C@H](N)C(=O)O [valine]
Absorbance reading (530 nm), AVG of reps (AHAS of SRS 934; Experiment 1, 10 mM amino acid): 0.184
Absorbance reading (530 nm), raw data (AHAS of SRS 934; Experiment 1, 10 mM amino acid): 0.186 and 0.182
Absorbance reading (530 nm), AVG of reps (AHAS of SRS 934; Experiment 2, 10 mM amino acid): 0.179
Absorbance reading (530 nm), raw data (AHAS of SRS 934; [12]): 0.206 and 0.151
Absorbance reading (530 nm), AVG of reps (AHAS of SRS 934; Experiment 3, 10 mM amino acid): 0.093
Absorbance reading (530 nm), raw data (AHAS of SRS 934; Experiment 3, 10 mM amino acid): 0.091
Absorbance reading (530 nm), AVG of reps (AHAS of MIDAS; Experiment 1, 10 mM amino acid): 0.214
Absorbance reading (530 nm), raw data (AHAS of MIDAS; Experiment 1, 10 mM amino acid): 0.205 and 0.223
Absorbance reading (530 nm), AVG of reps (AHAS of MIDAS; Experiment 2, 10 mM amino acid): 0.191
Absorbance reading (530 nm), raw data (AHAS of MIDAS; Experiment 2, 10 mM amino acid): 0.217
Absorbance reading (530 nm), raw data (AHAS of MIDAS; [12]): 0.165
Absorbance reading (530 nm), AVG of reps (AHAS of MIDAS; Experiment 3, 10 mM amino acid): 0.112
Absorbance reading (530 nm), raw data (AHAS of MIDAS; Experiment 3, 10 mM amino acid): 0.133 and 0.110 and 0.112
sensitivity of AHAS to feedback inhibition, comparison of enzyme extracts (AHAS of 14CS0851-01-14; 100 mM amino acid): no significant difference
Absorbance reading (530 nm), AVG of reps (AHAS of 14CS0851-01-14; Experiment 2, 10 mM amino acid): 0.178
Absorbance reading (530 nm), raw data (AHAS of 14CS0851-01-14; Experiment 2, 10 mM amino acid): 0.190
Absorbance reading (530 nm), raw data (AHAS of 14CS0851-01-14; [13]): 0.333
Absorbance reading (530 nm), AVG of reps (AHAS of 14CS0851-01-14; Experiment 3, 10 mM amino acid): 0.073
Absorbance reading (530 nm), raw data (AHAS of 14CS0851-01-14; Experiment 3, 10 mM amino acid): 0.057 and 0.084

CC(C)C[C@H](N)C(=O)O [leucine]
sensitivity of AHAS to feedback inhibition, comparison of enzyme extracts (AHAS of 14CS0851-01-14; 100 mM amino acid): no significant difference
Absorbance reading (530 nm), AVG of reps (AHAS of 14CS0851-01-14; Experiment 1, 100 mM amino acid): 0.143

CC[C@H](C)[C@H](N)C(=O)O [isoleucine]
Absorbance reading (530 nm), AVG of reps (AHAS of SRS 934; [14]): 0.234
Absorbance reading (530 nm), raw data (AHAS of SRS 934; [14]): 0.233
Absorbance reading (530 nm), AVG of reps (AHAS of SRS 934; [15]): 0.187
Absorbance reading (530 nm), raw data (AHAS of SRS 934; [15]): 0.219 and 0.154
Absorbance reading (530 nm), AVG of reps (AHAS of SRS 934; [16]): 0.033
Absorbance reading (530 nm), raw data (AHAS of SRS 934; [16]): 0.100
Absorbance reading (530 nm), AVG of reps (AHAS of MIDAS; [14]): 0.2675
Absorbance reading (530 nm), raw data (AHAS of MIDAS; [14]): 0.275 and 0.26
Absorbance reading (530 nm), AVG of reps (AHAS of MIDAS; [13]): 0.163
Absorbance reading (530 nm), raw data (AHAS of MIDAS; [15]): 0.208 and 0.176
Absorbance reading (530 nm), AVG of reps (AHAS of MIDAS; [16]): 0.103
Absorbance reading (530 nm), raw data (AHAS of MIDAS; [16]): 0.100 and 0.107 and 0.102
sensitivity of AHAS to feedback inhibition, comparison of enzyme extracts (AHAS of 14CS0851-01-14; 100 mM amino acid): no significant difference
Absorbance reading (530 nm), AVG of reps (AHAS of 14CS0851-01-14; [14]): 0.209
Absorbance reading (530 nm), raw data (AHAS of 14CS0851-01-14; [14]): 0.201 and 0.217
Absorbance reading (530 nm), AVG of reps (AHAS of 14CS0851-01-14; [15]): 0.186
Absorbance reading (530 nm), raw data (AHAS of 14CS0851-01-14; [13]): 0.170
Absorbance reading (530 nm), raw data (AHAS of 14CS0851-01-14; [15]): 0.200 and 0.171
Absorbance reading (530 nm), AVG of reps (AHAS of 14CS0851-01-14; [16]): 0.088
Absorbance reading (530 nm), raw data (AHAS of 14CS0851-01-14; [16]): 0.087 and 0.082 and 0.094
